Laboratory results: the NIST ThermoML archive (doi:10.1016/j.jct.2015.03.001)
± gives the expanded uncertainty stated by the source.

How the values were obtained:
[1] = relative permittivity at various frequencies (dimensionless); details: 99 kPa, Liquid, Frequency=2 MHz, Parallel plate capacitor
[2] = refractive index (Na D-line) (dimensionless); xn = mol fraction of the nth substance listed; details: 99 kPa, Liquid, Abbe refractometer, x1 = 1
[3] = relative permittivity at various frequencies (dimensionless); xn = mol fraction of the nth substance listed; details: 99 kPa, Liquid, Frequency=2 MHz, Parallel plate capacitor, x1 = 1
[4] = refractive index (Na D-line) (dimensionless); details: 298.15 K; 101.33 kPa; Liquid; Abbe refractometer

SMILES | relative permittivity ([1]; 283.15 K) | relative permittivity ([1]; 298.15 K) | relative permittivity ([1]; 313.15 K) | refractive index ([2]; 283.15 K) | refractive index ([2]; 298.15 K) | refractive index ([2]; 313.15 K) | relative permittivity ([3]; 283.15 K) | relative permittivity ([3]; 298.15 K) | relative permittivity ([3]; 313.15 K) | refractive index [4]
CC(C)CCl [1-chloro-2-methylpropane] | 7.472 ± 0.075 | 7.074 ± 0.071 | 6.657 ± 0.067 |  |  |  |  |  |  | 
CCCCCl [1-chlorobutane] | 7.552 ± 0.076 | 7.157 ± 0.072 | 6.757 ± 0.068 |  |  |  |  |  |  | 
CC(C)(C)Cl [2-chloro-2-methylpropane] | 10.429 ± 0.1 | 9.67 ± 0.097 | 8.952 ± 0.09 |  |  |  |  |  |  | 
CCC(C)Cl (configuration not stated) [2-chlorobutane] | 9.323 ± 0.093 | 8.652 ± 0.087 | 8.07 ± 0.081 |  |  |  |  |  |  | 
CCCCCCC [heptane] | 1.943 ± 0.019 | 1.923 ± 0.019 | 1.902 ± 0.019 |  |  |  |  |  |  | 
CCCCCCC [heptane] + CC(C)(C)Cl |  |  |  | 1.3929 ± 0.00031 | 1.3852 ± 0.00031 | 1.37735 ± 0.00031 | 1.943 ± 0.019 | 1.923 ± 0.019 | 1.902 ± 0.019 | 
CCCCCCC [heptane] + CC(C)CCl |  |  |  | 1.3929 ± 0.00031 | 1.3852 ± 0.00031 | 1.37735 ± 0.00031 | 1.943 ± 0.019 | 1.923 ± 0.019 | 1.902 ± 0.019 | 
CCCCCCC [heptane] + CCC(C)Cl |  |  |  | 1.3929 ± 0.00031 | 1.3852 ± 0.00031 | 1.37735 ± 0.00031 | 1.943 ± 0.019 | 1.923 ± 0.019 | 1.902 ± 0.019 | 
CCCCCCC [heptane] + CCCCCl |  |  |  | 1.3929 ± 0.00031 | 1.3852 ± 0.00031 | 1.37735 ± 0.00031 | 1.943 ± 0.019 | 1.923 ± 0.019 | 1.902 ± 0.019 | 
CCCCCC [hexane] | 1.905 ± 0.019 | 1.892 ± 0.019 | 1.873 ± 0.019 |  |  |  |  |  |  | 1.37223 ± 0.00031
CCCCCC [hexane] + CC(C)(C)Cl |  |  |  | 1.3805 ± 0.00031 | 1.37223 ± 0.00031 | 1.36391 ± 0.00031 | 1.905 ± 0.019 | 1.892 ± 0.019 | 1.873 ± 0.019 | 
CCCCCC [hexane] + CC(C)CCl |  |  |  | 1.3805 ± 0.00031 | 1.37223 ± 0.00031 | 1.36391 ± 0.00031 | 1.905 ± 0.019 | 1.892 ± 0.019 | 1.873 ± 0.019 | 
CCCCCC [hexane] + CCC(C)Cl |  |  |  | 1.3805 ± 0.00031 | 1.37223 ± 0.00031 | 1.36391 ± 0.00031 | 1.905 ± 0.019 | 1.892 ± 0.019 | 1.873 ± 0.019 | 
CCCCCC [hexane] + CCCCCl |  |  |  | 1.3805 ± 0.00031 | 1.37223 ± 0.00031 | 1.36391 ± 0.00031 | 1.905 ± 0.019 | 1.892 ± 0.019 | 1.873 ± 0.019 | 
